The test system of this test is MX-1 breast xenograft, intrarenal, nude mice, tumor weight. As to the kind of experiment: NCI In Vivo Anticancer Drug Screen. Data for tumor model Human Mammary Carcinoma MX-1 Xenograft (intrarenal inoculation) in NU/NU BALB/C (nude) mice. As to conditions: endpoint: mean tumor weight change, higher = larger tumour. In outline:
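T/C readout: treated-group measurement over vehicle-control measurement, using tumor size or survival in tumor-bearing mice.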
Background: A xenograft is tissue or cells of one species grown in another, often human tumour cells in immunodeficient mice.

Setting [1] is: dose: 300.0 mg/kg/injection, schedule: Q04DX003 (sc), vehicle: saline with Tween-80.
Setting [2] is: dose: 1200.0 mg/kg/injection, schedule: Q04DX003 (sc), vehicle: saline with Tween-80.
Setting [3] is: dose: 25.0 mg/kg/injection, schedule: Q04DX003 (ip), vehicle: saline with Tween-80.
[4] abbreviates: dose: 50.0 mg/kg/injection, schedule: Q04DX003 (ip), vehicle: saline with Tween-80.

Structures are written as SMILES. Values joined by “and” are separate entries in the source; they are usually repeats but may differ in a detail not shown here. Identical values can stand only once. Inconclusive results are not listed.

Among the data in PubChem BioAssay AID298 (DTP/NCI, 2004) are T/C values, retold here.

Take `O=C(O)CCCc1ccc(N(CCCl)CCCl)cc1`: the T/C runs as follows: (dose: 12.0 mg/kg/injection, schedule: Q04DX003 (ip), vehicle: Klucel (hydroxypropylcellulose) (HPC)) 1 % of control and 4 % of control; (dose: 18.0 mg/kg/injection, schedule: Q04DX003 (ip), vehicle: Klucel (hydroxypropylcellulose) (HPC)) 4 % of control; (dose: 27.0 mg/kg/injection, schedule: Q04DX003 (ip), vehicle: Klucel (hydroxypropylcellulose) (HPC)) -55 % of control.
Consider `C=CCOc1cc2c(cc1C(C)c1ccc(OC)cc1)OCO2` (stereo unspecified), for which the T/C by setting is: (dose: 75.0 mg/kg/injection, schedule: Q04DX003 (ip), vehicle: Klucel (hydroxypropylcellulose) (HPC)) 73 % of control; (dose: 150.0 mg/kg/injection, schedule: Q04DX003 (ip), vehicle: Klucel (hydroxypropylcellulose) (HPC)) 91 % of control; (dose: 300.0 mg/kg/injection, schedule: Q04DX003 (ip), vehicle: Klucel (hydroxypropylcellulose) (HPC)) 94 % of control.
With `CCCn1c(SC)nc(COC(=O)NC)c1COC(=O)NC`, the T/C is 62 % of control (dose: 30.0 mg/kg/injection, schedule: Q04DX003 (ip), vehicle: saline); 38 % of control (dose: 60.0 mg/kg/injection, schedule: Q04DX003 (ip), vehicle: saline); 7 % of control (dose: 120.0 mg/kg/injection, schedule: Q04DX003 (ip), vehicle: saline); -100 % of control (dose: 240.0 mg/kg/injection, schedule: Q04DX003 (ip), vehicle: saline).
For `Nc1nc2c(ncn2C2OC(CO)C(O)C2O)c(=O)[nH]1` (stereo unspecified), the T/C was 84 % of control under setting [1]; 81 % of control (dose: 600.0 mg/kg/injection, schedule: Q04DX003 (sc), vehicle: saline with Tween-80); 82 % of control under setting [2]; 88 % of control (dose: 2400.0 mg/kg/injection, schedule: Q04DX003 (sc), vehicle: saline with Tween-80).
For the compound `CCNC=O`, the T/C reads like this: (dose: 200.0 mg/kg/injection, schedule: Q01DX010 (sc), vehicle: saline) 85 % of control; (dose: 400.0 mg/kg/injection, schedule: Q01DX010 (sc), vehicle: saline) 70 % of control; (dose: 800.0 mg/kg/injection, schedule: Q01DX010 (sc), vehicle: saline) 27 % of control.
Turning to `CN=NN(C)C(=O)NC`, the T/C is, setting by setting: (dose: 37.5 mg/kg/injection, schedule: Q04DX003 (ip), vehicle: saline) 112 % of control; (dose: 75.0 mg/kg/injection, schedule: Q04DX003 (ip), vehicle: saline) 79 % of control; (dose: 108.0 mg/kg/injection, schedule: Q04DX003 (ip), vehicle: saline) 2 % of control; (dose: 150.0 mg/kg/injection, schedule: Q04DX003 (ip), vehicle: saline) 15 % of control; (dose: 180.0 mg/kg/injection, schedule: Q04DX003 (ip), vehicle: saline with Tween-80) 108 % of control; (dose: 300.0 mg/kg/injection, schedule: Q04DX003 (ip), vehicle: saline) -13 % of control. Besides, the T/C (dose: 500.0 mg/kg/injection, schedule: Q04DX003 (ip), vehicle: saline with Tween-80) is 124 % of control.
Regarding `COc1cc(/C=C/[N+](=O)[O-])cc(Br)c1OC`, the T/C (dose: 6.25 mg/kg/injection, schedule: Q04DX003 (ip), vehicle: saline with Tween-80) was 81 % of control; the T/C (dose: 12.5 mg/kg/injection, schedule: Q04DX003 (ip), vehicle: saline with Tween-80) was 104 % of control; the T/C under setting [3] is 92 % of control and 105 % of control; the T/C under setting [4] is 96 % of control.
Consider `O=S(CCCl)CCCl`, for which the T/C by setting is: (dose: 25.0 mg/kg/injection, schedule: Q04DX003 (sc), vehicle: Klucel (hydroxypropylcellulose) (HPC)) 94 % of control; (dose: 50.0 mg/kg/injection, schedule: Q04DX003 (sc), vehicle: Klucel (hydroxypropylcellulose) (HPC)) 92 % of control.
Consider `O=C1c2cccc(NCCCNCCO)c2C(=O)c2cccc(NCCCNCCO)c21`, for which the T/C by setting is: (dose: 18.75 mg/kg/injection, schedule: Q04DX003 (ip), vehicle: acid diluted with saline) 89 % of control; (dose: 37.5 mg/kg/injection, schedule: Q04DX003 (ip), vehicle: acid diluted with saline) 171 % of control.
For the compound `CC(=O)Nc1cscc1NC(C)=O`, the T/C (dose: 150.0 mg/kg/injection, schedule: Q04DX003 (sc), vehicle: saline with Tween-80) was 198 % of control; the T/C under setting [1] was 59 % of control; the T/C under setting [2] is 106 % of control.
Regarding `Cc1nc(N)nc(N)c1N1CCN(c2ccc(C(=O)NC(C(=O)O)C(=O)O)cc2)CC1`, the T/C is, setting by setting: (dose: 7.5 mg/kg/injection, schedule: Q04DX003 (ip), vehicle: Klucel + Tween-80) 63 % of control; (dose: 15.0 mg/kg/injection, schedule: Q04DX003 (ip), vehicle: Klucel + Tween-80) 76 % of control; (dose: 30.0 mg/kg/injection, schedule: Q04DX003 (ip), vehicle: Klucel + Tween-80) 76 % of control; (dose: 60.0 mg/kg/injection, schedule: Q04DX003 (ip), vehicle: Klucel + Tween-80) 82 % of control.
Consider `COc1cc(C2CC(C)(O)Oc3cc4c(cc32)OCO4)cc(OC)c1OC` (stereo unspecified), for which the T/C is, setting by setting: under setting [3], 86 % of control; under setting [4], 75 % of control; (dose: 100.0 mg/kg/injection, schedule: Q04DX003 (ip), vehicle: saline with Tween-80) 73 % of control and 74 % of control; (dose: 200.0 mg/kg/injection, schedule: Q04DX003 (ip), vehicle: saline with Tween-80) 46 % of control.
On to `CCCCCCCCCCCCCCCCP(=O)(OCCOCCCCCC)OCCOCCCCCC`, for which the T/C is 102 % of control (dose: 150.0 mg/kg/injection, schedule: Q04DX003 (sc), vehicle: saline); 97 % of control (dose: 300.0 mg/kg/injection, schedule: Q04DX003 (sc), vehicle: saline); 70 % of control (dose: 600.0 mg/kg/injection, schedule: Q04DX003 (sc), vehicle: saline).
For the compound `Cc1c(N)nc(C(CC(N)=O)NCC(N)C(N)=O)nc1C(=O)NC(C(=O)NC(C)C(O)C(C)C(=O)NC(C(=O)NCCc1nc(-c2nc(C(=O)NCCCNC(C)c3ccccc3)cs2)cs1)C(C)O)C(OC1OC(CO)C(O)C(O)C1OC1OC(CO)C(O)C(OC(N)=O)C1O)c1cnc[nH]1` (stereo unspecified), the T/C (dose: 8.0 mg/kg/injection, schedule: Q01DX010 (sc), vehicle: saline) is 69 % of control; the T/C (dose: 16.0 mg/kg/injection, schedule: Q01DX010 (sc), vehicle: saline) was 55 % of control; the T/C (dose: 32.0 mg/kg/injection, schedule: Q01DX010 (sc), vehicle: saline) is 43 % of control.
With `C=C1COC(O)(C2OCOC(C3CC(=O)NC(=O)C3)C2O)C1C` (stereo unspecified), the T/C (dose: 37.5 micrograms/kg/injection, schedule: Q04DX003 (ip), vehicle: water) is 117 % of control.
Turning to `Cc1ccc(/C=C/C(=O)/C=C/c2ccc(C)o2)o1`, the T/C is, setting by setting: (dose: 100.0 mg/kg/injection, schedule: Q04DX003 (ip), vehicle: DMSO) 94 % of control; (dose: 200.0 mg/kg/injection, schedule: Q04DX003 (ip), vehicle: DMSO) 112 % of control; (dose: 800.0 mg/kg/injection, schedule: Q04DX003 (ip), vehicle: DMSO) 107 % of control.
On to `C=C1C(O)C2(O)OCC34C(CC5C(C)=CC(=O)C(O)C5(C)C23)OC(=O)C(OC(=O)C/C=C/CCCCCCCC)C14` (stereo unspecified), for which the T/C (dose: 12.5 mg/kg/injection, schedule: Q04DX003 (ip), vehicle: saline + alcohol) was 38 % of control.
Consider `O=C(CCCN1CCC(C(O)c2ccc(F)cc2)CC1)c1ccc(F)cc1` (stereo unspecified), for which the T/C is 90 % of control under setting [3] and 83 % of control under setting [4].
